Converted amounts (≈) assume the structure as drawn. “And” between values parts separate entries of the source, which are not always exact repeats. Equal values may be shown once. Read-outs that look alike come from different tables or passages of the source. Where a SMILES comes first, the peptide text is derived from it. [ ]: non-standard residue; d: D form. NMeTrp(1-Me) = CN[C@@H](Cc1cn(C)c2ccccc12)C(=O)O; NMeLeu(5-OH,4R) = CN[C@@H](C[C@@H](C)CO)C(=O)O; Phe(βR-OMe) = CO[C@H](c1ccccc1)[C@H](N)C(=O)O; NMeL = CN[C@@H](CC(C)C)C(=O)O; Pra = C#CC[C@H](N)C(=O)O
Legend:
[1] = biological target: ClpC1 NTD protein (M. tuberculosis) (Mycobacterium tuberculosis, UniProt P9WPC9); assay: biochemical; assay type: binding; details: SPR
in vitro = details: human; for efflux ratio: Caco-2
Method in brief: (§1)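 Values are bidirectional Caco-2 apparent permeabilities, P(A−B) and P(B−A), given in 10^-6 cm s-1. The efflux ratio divides P(B−A) by P(A−B), and intrinsic permeability averages the two directions.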

Caco-2 monolayers = assay: in vitro
Method in brief: as §1

[2] = assay type: in vitro ADME, Mice
Experimental: (§2) The kinetics of compound degradation in liver microsomes is assessed in an assay with 1 µmol/l of compound and 0.5 mg/ml liver microsomes in a medium of 100 mM Tris-HCl pH 7.5, 6.5 mM MgCl2 and 1 mM NADPH at 37 °C. The reaction is stopped at multiple time points by adding acetonitrile. After centrifugation, the compound concentration is measured in the supernatants by high-performance liquid chromatography (HPLC) tandem mass spectrometry (MS/MS). The results are fitted to a first-order decay and the half-lives are converted to clearance (stated as % of the liver blood flow (%Qh)) using the well-stirred liver model.

[3] = assay type: in vitro ADME, Rat
Experimental: as §2

[4] = Microsomal stability, human; assay type: in vitro ADME
Experimental: as §2

[5] = Hepatocyte stability, mice; assay type: in vitro ADME
Method in brief: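 Parent depletion by HPLC-MS/MS in mouse hepatocyte suspension (50% serum, ~1 million cells/mL) with 1 µM compound over up to 6 h at 37 °C. Half-lives were scaled to % Qh using the well-stirred liver model.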

[6] = assay type: in vitro ADME, Rat; remark: listed apart in the source
[7] = assay type: in vitro ADME, Human
[8] = system: M. tuberculosis H37Rv (ATCC 27294); assay: microbe, parasite or virus in culture; assay type: cell-based
Msm 607 = assay: microbe, parasite or virus in culture; assay type: cell-based
Msm 700084 = assay: microbe, parasite or virus in culture; assay type: cell-based
[9] = individual measurements (source data), read-out: KD ClpC1-NTD
[10] = read-out: ClpC1-NTD KD Mean ± SD
[11] = Mycobacterium tuberculosis, M. tuberculosis H37Rv strain, read-out: MIC Mtb H37Rv Mean ± SD
[12] = Mycobacterium tuberculosis, Mtb H37Rv (Supplementary Table 2), read-out: MIC Mtb
[13] = Mycobacterium tuberculosis, individual measurements (source data), read-out: Mtb MIC
[14] = Mycobacterium tuberculosis, single determinations, read-out: Mtb MIC
[15] = individual measurements (source data), read-out: Mtb MIC
[16] = Mycolicibacterium smegmatis, 607, read-out: MIC Msm 607
[17] = Mycolicibacterium smegmatis, 700084, single determinations, read-out: Msm 700084 MIC
[18] = Mycolicibacterium smegmatis, 700084, read-out: MIC Msm 700084

Sequence of ClpC1 NTD protein (M. tuberculosis) (P9WPC9 1-156, looked up, natural form): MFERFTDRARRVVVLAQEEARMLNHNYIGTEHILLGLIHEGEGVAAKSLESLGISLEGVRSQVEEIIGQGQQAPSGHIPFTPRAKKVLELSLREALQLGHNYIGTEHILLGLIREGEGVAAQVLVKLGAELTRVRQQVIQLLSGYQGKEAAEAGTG

For `C#CC[C@@H]1NC(=O)[C@H](CC(C)C)N(C)C(=O)[C@H](C(C)C)NC(=O)[C@H]([C@H](OC)c2ccccc2)NC(=O)[C@H](C)NC(=O)[C@H](C[C@@H](C)CO)N(C)C(=O)[C@H](Cc2cn(C)c3ccccc23)N(C)C1=O` [Compound 20] (cyclo(A[Phe(βR-OMe)]V[NMeL][Pra][NMeTrp(1-Me)][NMeLeu(5-OH,4R)])), the Kd [1, 9] was 14.1 nM and 13.7 nM, the Kd [1, 10] was 13.9 ± 0.3 nM and the efflux ratio (in vitro) was 11.8. The Papp A→B (in vitro; Caco-2, CACO permeability PEAB) was 2 ×10⁻⁶ cm/s, the Papp B→A (in vitro; Caco-2, CACO permeability PEBA) was 36 ×10⁻⁶ cm/s and the Papp A→B (in vitro; Caco-2, Caco-2 permeability P (A-B)) was 2.8 ×10⁻⁶ cm/s. The Papp B→A (in vitro; Caco-2, Caco-2 permeability P (B-A)) was 28.5 ×10⁻⁶ cm/s, the “Caco-2 Int. Perm” value (Caco-2 monolayers; human, Caco-2) was 15.7 and the “Influence of N-methylation on permeability” value (Caco-2 monolayers; human, Caco-2) was over 11.8. For the same molecule, the “Permeability Correlation P (A-B)” value (Caco-2 monolayers; human, Caco-2) was over 28, the “Microsomal Stability Mouse QH” value ([2]; Mouse) was over 88.400% and the “Microsomal Stability Mice” value ([2]; clearance in microsomes) was over 88 %Qh. The “Microsomal Stability Rat QH” value ([3]; Rat) was over 87.900%, the “Microsomal Stability Rat” value ([3]; clearance in microsomes) was over 88 %Qh and the “Microsomal Stability Human QH” value ([4]; Human) was over 88.400%. The “Microsomal Stability Human” value ([4]; clearance in microsomes) was over 88 %Qh, the “Hepatocyte Mice” value ([5]; mouse, pH 7.4) was 59 %Qh and the “Hepatocyte Stability Mouse QH” value ([5]; mouse, pH 7.4) was 58.928%. For the same molecule, the “Hepatocyte Rat” value ([6]; rat, pH 7.4) was 63 %Qh, the “Hepatocyte Stability Rat QH” value ([6]; rat, pH 7.4) was 63.002% and the “Hepatocyte Human” value ([7]; human, pH 7.4) was 34 %Qh. For the same molecule, the “Hepatocyte Stability Human QH” value ([7]; human, pH 7.4) was 34.158%, the MIC [8, 11] was 50 µM (≈ 46.4 µg/mL) and the MIC [8, 12] was 50 µM (≈ 46.4 µg/mL). It also gave an MIC [8, 13] of 50 µM (≈ 46.4 µg/mL), an MIC [8, 14] of 50 µM (≈ 46.4 µg/mL) and an MIC [8, 15] of 50.000 µM (≈ 46.4 µg/mL). The MIC (Msm 607; [16]) was 25 µM (≈ 23.2 µg/mL), the MIC (Msm 607; Mycolicibacterium smegmatis, 607, read-out: Msm 607 MIC, single determinations) was 25 µM (≈ 23.2 µg/mL) and the MIC (Msm 700084; [17]) was over 50 µM. For the same molecule, the MIC (Msm 700084; [18]) was over 50 µM.
For `CO[C@H](c1ccccc1)[C@@H]1NC(=O)[C@H](C)NC(=O)[C@H](C[C@@H](C)CO)N(C)C(=O)[C@H](Cc2cn(C)c3ccccc23)N(C)C(=O)[C@H](Cc2cn(CCCCCn3cc(C[C@@H]4NC(=O)[C@H](CC(C)C)N(C)C(=O)[C@H](C(C)C)NC(=O)[C@H]([C@H](OC)c5ccccc5)NC(=O)[C@H](C)NC(=O)[C@H](C[C@@H](C)CO)N(C)C(=O)[C@H](Cc5cn(C)c6ccccc56)N(C)C4=O)nn3)nn2)NC(=O)[C@H](CC(C)C)N(C)C(=O)[C@H](C(C)C)NC1=O` [Compound 22], the Kd [1, 9] was 0.764 nM and 1.13 nM, the “koff ClpC1-NTD” value ([1]; single independent measurements) was 0.01 s⁻¹ and the koff ([1]; single independent measurements, read-out: koff ClpC1-NTD) was 0.007 s⁻¹. It also gave a Kd [1, 10] of 0.9 ± 0.3 nM, an efflux ratio (in vitro) of 0.3 and a Papp B→A (in vitro; Caco-2, CACO permeability PEBA, basolateral to apical) of under 0.051 ×10⁻⁶ cm/s. For the same molecule, the Papp A→B (in vitro; Caco-2, Caco-2 permeability P (A-B), apical to basolateral) was 0.5 ×10⁻⁶ cm/s, the Papp B→A (in vitro; Caco-2, Caco-2 permeability P (B-A), basolateral to apical) was 0.2 ×10⁻⁶ cm/s and the “Permeability Correlation P (A-B)” value (Caco-2 monolayers; influence of Trp-Nα methylation on P(A-B), matched pair, listed under the methylated partner) was 0.7. For the same molecule, the “Permeability Correlation Ratio” value (Caco-2 monolayers; influence of Trp-Nα methylation on efflux ratio, matched pair, listed under the methylated partner) was 1, the “Caco-2 Int. Perm” value (Caco-2 monolayers; mean value of P(A−B) and P(B−A)) was 0.3 10-6 cm s-1 and the “Hepatocyte Mice” value ([5]; clearance in hepatocytes) was 15 %Qh. The “Hepatocyte Stability Rat QH” value ([6]; Rat) was 9.923%, the “Hepatocyte Rat” value ([6]; clearance in hepatocytes) was 10 %Qh and the “Hepatocyte Human” value ([7]; clearance in hepatocytes) was 12 %Qh. The MIC [8, 11] was 3.1 µM (≈ 6.23 µg/mL), the MIC [8, 12] was 3.1 µM (≈ 6.23 µg/mL) and the MIC [8, 13] was 3.12 µM (≈ 6.28 µg/mL). The MIC [8, 14] was 3.12 µM (≈ 6.28 µg/mL), the MIC [8, 15] was 3.125 µM (≈ 6.28 µg/mL) and the MIC (Msm 607; [16]) was 2.3 ± 1.1 µM (≈ 4.62 µg/mL). The MIC (Msm 700084; [17]) was over 50 µM and the MIC (Msm 700084; [18]) was over 50 µM.

Source: publication PMC10914731, “Homo-BacPROTAC-induced degradation of ClpC1 as a strategy against drug-resistant mycobacteria” (Nature Communications, 2024)
